≈ marks a conversion by molar mass, not a printed value. Read-outs that look alike come from different tables or passages of the source.
Key:
[1] = Peptide solubility in PBS/H2O/DMSO; format: physicochemical
Experimental: Peptide identity and purity are documented by mass spectrometry and high-performance liquid chromatography (HPLC). The peptide solubility values are determined. Concentrated peptide stocks are prepared in DMSO or H2O and stored frozen at −80° C.

[2] = target: EphA2 (Homo sapiens, UniProt P29317); assay: Bias factor βlig (pY588 versus pAKT inhibition, PC3 cells, reference ephrinA1-Fc); format: cell-based; set-up: EphA2 is the prevalent endogenously expressed EphA receptor in these cells; endogenous in cells; host or cells: PC3 prostate cancer cells
Experimental: FIG. 6 illustrates an example where Ligands can bias EphA2 signaling responses. The bias factor βlig was calculated for the indicated ligands using ephrinA1-Fc as the reference ligand. Statistical significance for the comparison of the different ligands with the reference ligand ephrinA1-Fc (βlig=0) was determined by one sample t test; *, P<0.05; **, P<0.01; ***, P<0.001; ****, P<0.0001.
FIG. 14A-14E illustrates an example where distinct factors are responsible for EphA2 biased signaling induced by different ligands. (FIG. 14A) Etop values for EphA2 Y588 phosphorylation, as in FIG. 2C. (FIG. 14B) Etop values for inhibition of AKT phosphorylation. (FIG. 14C) Graph of the ratios of the Etop values for EphA2 Y588 phosphorylation and inhibition of AKT phosphorylation, which are used in the βlig calculation. (FIG. 14D) Graph of the ratios of the EC50 values for EphA2 Y588 phosphorylation and inhibition of AKT phosphorylation, which are used in the βlig calculation. (FIG. 14E) Equation used to calculate the bias factor βlig for each ligand. The terms of the equation are rearranged, compared to equation (1) in the Materials and Methods, to better conform to the graphs in FIG. 14A-14D. **, P<0.01; ***, P<0.001; ****, P<0.0001; ns, not significant for the comparison with ephrinA1-Fc by one-way ANOVA and Dunnett's posthoc test.
The possibility of EphA2 biased signaling by analyzing the dose-response curves obtained with endogenous EphA2 in PC3 cells (FIG. 2A) was explored using approaches developed for GPCRs. This involves using EphA2 Y588 phosphorylation and AKT phosphorylation quantified as a function of ligand concentration to determine and compare the potency (EC50) and efficacy (Etop) for the two responses induced by different ligands. Remarkably, large differences among the ligands in the Etop values for Y588 phosphorylation (FIGS. 2C, 2D and 14A), but not in the Etop values for AKT inhibition (FIGS. 2E and 14B), were observed. In terms of relative efficacies for pY588 and pAKT inhibition, the C-terminally linked dimers and monomeric ligands behave differently from ephrinA1-Fc, while the N-terminally linked dimers and the head-to-tail dimer (8) are similar to ephrinA1-Fc (FIG. 14C). […] Thus, the type of linkage affects EphA2 signaling properties induced by the dimeric peptides.
The determined EC50 and Etop values allowed us to calculate the bias factor βlig for the two different responses induced by the various ligands relative to ephrinA1-Fc as the reference ligand (FIG. 14E). […] Remarkably, the bias originates from different mechanisms that depend on the class of ligands, with the N-terminally linked and head-to-tail dimers modulating relative potencies and the C-terminally-linked dimers and monomers modulating relative efficacies.

[3] = tested on: other Eph receptors; assay: ELISA selectivity: ephrinA5-AP binding to EphA receptors and ephrinB2-AP binding to EphB receptors; details: peptide at ~100-fold its IC50
Excerpt: FIG. 1A-1C illustrates an example of Potency and selectivity of EphA2-targeting dimeric peptides. (FIG. 1A) ELISAs comparing the ability of the peptides to inhibit binding of ephrin-A5 fused to alkaline phosphatase (ephrinA5-AP) to the immobilized EphA2 extracellular domain fused to the Fc portion of an antibody (EphA2-Fc). The graphs show averages ±SD from triplicate measurements from a representative experiment. IC50 values calculated from the fitted curves in each experiment are shown. Averages of IC50 values obtained from multiple experiments are shown in panel FIG. 1B and Table 3. The 10 nM peptide concentration is outlined in red. (FIG. 1B) Plot of the average IC50 values (listed in Table 3) for different ligands. […] (FIG. 1C) EphrinA5-AP binding to EphA receptors and ephrinB2-AP binding to EphB receptors in the presence of dimeric peptides representing each of the three configurations. Values are normalized to ephrin binding without peptide. The graphs show averages and SDs from triplicate measurements (with each measurement shown as a dot).
An important feature of the original YSA peptide and its monomeric derivatives is that they specifically bind to EphA2, whereas the ephrinA ligands promiscuously binds to all EphA receptors (9, 31, 37, 53). […]

Chain of EphA2 (P29317 24-976): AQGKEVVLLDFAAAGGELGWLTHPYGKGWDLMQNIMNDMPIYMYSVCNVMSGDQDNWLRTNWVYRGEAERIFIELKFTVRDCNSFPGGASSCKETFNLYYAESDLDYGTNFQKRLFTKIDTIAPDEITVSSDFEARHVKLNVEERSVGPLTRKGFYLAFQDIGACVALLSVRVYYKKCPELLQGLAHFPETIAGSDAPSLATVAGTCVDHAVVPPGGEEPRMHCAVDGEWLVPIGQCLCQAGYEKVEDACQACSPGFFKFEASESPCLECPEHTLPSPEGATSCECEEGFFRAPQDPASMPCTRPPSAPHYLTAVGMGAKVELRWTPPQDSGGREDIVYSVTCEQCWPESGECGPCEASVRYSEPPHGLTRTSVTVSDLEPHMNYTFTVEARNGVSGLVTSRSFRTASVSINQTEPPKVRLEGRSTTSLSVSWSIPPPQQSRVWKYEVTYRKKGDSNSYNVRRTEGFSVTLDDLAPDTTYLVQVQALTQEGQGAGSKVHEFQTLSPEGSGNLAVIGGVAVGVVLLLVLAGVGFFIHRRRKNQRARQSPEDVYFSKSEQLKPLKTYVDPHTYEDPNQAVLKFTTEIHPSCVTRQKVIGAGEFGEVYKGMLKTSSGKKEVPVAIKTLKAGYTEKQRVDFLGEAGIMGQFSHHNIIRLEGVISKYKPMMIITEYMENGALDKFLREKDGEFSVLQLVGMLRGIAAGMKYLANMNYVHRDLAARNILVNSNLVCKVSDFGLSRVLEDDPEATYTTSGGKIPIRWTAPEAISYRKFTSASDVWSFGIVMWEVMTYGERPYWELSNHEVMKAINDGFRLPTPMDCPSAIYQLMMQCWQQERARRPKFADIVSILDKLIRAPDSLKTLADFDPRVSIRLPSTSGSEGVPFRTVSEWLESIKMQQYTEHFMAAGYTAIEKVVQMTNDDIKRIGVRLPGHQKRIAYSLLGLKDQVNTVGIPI

For CC(C)C[C@H](NC(=O)[C@H](Cc1c[nH]c2ccccc12)NC(=O)[C@H](C)NC(=O)CNC(=O)[C@@H](N)CSSC[C@H](N)C(=O)NCC(=O)N[C@@H](C)C(=O)N[C@@H](Cc1c[nH]c2ccccc12)C(=O)N[C@@H](CC(C)C)C(=O)N[C@@H](C)C(=O)N[C@@H](Cc1ccc(O)cc1)C(=O)N1CCC[C@H]1C(=O)N[C@@H](CC(=O)O)C(=O)N[C@@H](CO)C(=O)N[C@H](C(=O)N1CCC[C@H]1C(=O)N[C@@H](Cc1ccc(O)cc1)C(=O)N[C@@H](CCCNC(=N)N)C(=O)N1CCC[C@H]1C(=O)N[C@@H](CCCCN)C(=O)O)C(C)C)C(=O)N[C@@H](C)C(=O)N[C@@H](Cc1ccc(O)cc1)C(=O)N1CCC[C@H]1C(=O)N[C@@H](CC(=O)O)C(=O)N[C@@H](CO)C(=O)N[C@H](C(=O)N1CCC[C@H]1C(=O)N[C@@H](Cc1ccc(O)cc1)C(=O)N[C@@H](CCCNC(=N)N)C(=O)N1CCC[C@H]1C(=O)N[C@@H](CCCCN)C(=O)O)C(C)C [compound 5, CGA-WLA-YRPK dimer (N-ter)], the solubility ([1]; DMSO, third of PBS/H2O/DMSO, read-out: Solubility in DMSO) was 15000 µg/mL (≈ 4120 µM), the solubility ([1]; PBS, Table 4, first of PBS/H20/DMSO, read-out: Solubility in PBS) was 5000 µg/mL (≈ 1370 µM) and the solubility ([1]; PBS, first of PBS/H2O/DMSO, read-out: Solubility in PBS) was 5000 µg/mL (≈ 1370 µM). The solubility ([1]; water, Table 4, second of PBS/H20/DMSO, read-out: Solubility in H20) was 5000 µg/mL (≈ 1370 µM), the solubility ([1]; water, second of PBS/H2O/DMSO, read-out: Solubility in H2O) was 5000 µg/mL (≈ 1370 µM) and the “βu (bias factor βlig)” value ([2]; Table 3, reference ligand ephrinA1-Fc (βlig=0)) was 066 ± 0.12. For the same compound, the Blig ([2]; bias factor, reference ligand ephrinA1Fc) was 0.81 ± 0.09 and the “selectivity for EphA2 / binding to other Eph receptors” value [3] was “do not bind to other Eph receptors”.
